Measurements from patent publication EP0640606B1, “Thienopyrimidine derivatives, their production and use” (TAKEDA CHEMICAL INDUSTRIES, LTD., priority 1993, dated 1995).

Tests used:
[1] = biological target: T1, Endothelin-A Receptor (Sus scrofa, UniProt Q29010); experiment: Endothelin Receptor Assay, [125I]endothelin-1 binding to pig ventricular muscle membrane fraction; details: 25°C for 60 minutes, concentration wherein PMB was 50%, read-out: IC50 Endothelin-A Receptor (pigs)
T1 construct: A pig ventricular muscle membrane fraction for an endothelin-A receptor assay; from tissue; host or cells: pig ventricular muscle membrane fraction
T1 sequence (Q29010 21-427): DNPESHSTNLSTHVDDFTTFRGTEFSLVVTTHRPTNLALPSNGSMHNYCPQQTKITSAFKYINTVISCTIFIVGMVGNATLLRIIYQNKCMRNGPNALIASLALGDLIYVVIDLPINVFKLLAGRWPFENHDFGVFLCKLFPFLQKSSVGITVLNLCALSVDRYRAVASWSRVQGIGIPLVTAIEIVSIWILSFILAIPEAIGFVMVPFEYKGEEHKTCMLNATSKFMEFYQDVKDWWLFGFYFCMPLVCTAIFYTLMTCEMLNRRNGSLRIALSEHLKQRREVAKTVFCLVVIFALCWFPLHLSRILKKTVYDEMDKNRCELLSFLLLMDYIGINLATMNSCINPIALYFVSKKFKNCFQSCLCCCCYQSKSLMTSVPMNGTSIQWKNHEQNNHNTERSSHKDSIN
Method: (§1) A pig ventricular muscle membrane fraction for an endothelin-A receptor assay and a bovine cerebral membrane fraction for an endothelin-B receptor assay were diluted with an assay buffer [comprising 20 mM of Tris-HCl, 2 mM of EGTA (ethylene glycol bis(2-aminoethyl ether)tetraacetic acid), 5 mM of magnesium acetate, 0.1% of BSA (bovine serum albumin), 0.03% of NaN3, 0.5 mM of PMSF (phenylmethylsulfonyl fluoride), 20 micrograms/ml of leupeptin, 4 micrograms/ml of E-64 (manufactured by the Peptide Institute, Japan) and 1 microgram/ml of pepstatin; pH 7.2] to 12 µg/ml and 180 µg/ml, respectively.
(§2) To each 100 microliter of them was added 5 nM [^125I] endothelin-1 (2 microliters). A solution (3 microliters) of the sample was added and the mixture was incubated at 25°C for 60 minutes. In order to measure the maximum binding (B0) and the nonspecific bonding (NSB), a lot to which dimethyl sulfoxide (3 microliters) or a solution (3 microliters) of 10^-5M of endothelin in dimethyl sulfoxide was added was incubated as well. […] The radioactivity of the filter was counted by a γ -counter and a calculation was conducted in accordance with the following formula (1) whereby a percent maximum binding (hereinafter, referred to as PMB) was determined. […]

[2] = biological target: T2, Endothelin-B Receptor (Bos taurus, UniProt P28088); experiment: Endothelin Receptor Assay, [125I]endothelin-1 binding to bovine cerebral membrane fraction; details: 25°C for 60 minutes, concentration wherein PMB was 50%
T2 construct: a bovine cerebral membrane fraction for an endothelin-B receptor assay; from tissue; host or cells: bovine cerebral membrane fraction
T2 sequence (P28088 27-441): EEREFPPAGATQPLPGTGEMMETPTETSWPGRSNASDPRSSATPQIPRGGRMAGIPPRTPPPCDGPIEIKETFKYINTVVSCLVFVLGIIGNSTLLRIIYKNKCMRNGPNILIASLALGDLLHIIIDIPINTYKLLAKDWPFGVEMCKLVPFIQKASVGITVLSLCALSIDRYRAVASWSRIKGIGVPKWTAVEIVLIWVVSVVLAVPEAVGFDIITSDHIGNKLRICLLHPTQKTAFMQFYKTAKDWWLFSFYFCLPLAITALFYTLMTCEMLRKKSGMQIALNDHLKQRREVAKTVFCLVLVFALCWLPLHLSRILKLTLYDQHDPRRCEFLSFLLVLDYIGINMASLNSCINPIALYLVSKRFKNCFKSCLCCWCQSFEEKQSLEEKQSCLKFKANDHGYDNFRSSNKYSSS
Method: as §1, §2

[3] = biological target: T3, Endothelin-A Receptor (Homo sapiens, UniProt P25101); experiment: Endothelin Assay Test, [125I]endothelin-1 binding to insect cell (Sf9) membrane fraction expressing human ETA receptor; details: human ETA receptor expressed, 25°C for 60 minutes, PMB = 50%, read-out: IC 50 Endothelin-A Receptor (human)
T3 construct: expressed in transfected cells; host or cells: Sf9 insect cells (membrane fraction)
T3 sequence (P25101 21-427): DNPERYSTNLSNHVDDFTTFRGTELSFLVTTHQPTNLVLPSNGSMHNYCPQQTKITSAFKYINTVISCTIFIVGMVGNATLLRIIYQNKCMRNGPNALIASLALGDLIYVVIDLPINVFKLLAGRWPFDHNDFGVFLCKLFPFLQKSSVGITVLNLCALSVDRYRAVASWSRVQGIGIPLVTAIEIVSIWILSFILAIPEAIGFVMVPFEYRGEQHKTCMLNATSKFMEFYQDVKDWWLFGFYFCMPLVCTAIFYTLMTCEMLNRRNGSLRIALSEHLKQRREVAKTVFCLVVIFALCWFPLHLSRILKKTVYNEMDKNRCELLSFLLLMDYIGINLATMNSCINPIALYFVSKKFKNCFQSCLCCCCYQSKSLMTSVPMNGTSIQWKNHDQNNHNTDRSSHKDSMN
Method: (§3) Endothelin (ET) receptors were prepared as follows. An insect cell (Sf9) membrane fraction wherein human endothelin-A (ETA) was expressed and that wherein endothelin-B (ETB) was expressed were diluted with an assay buffer [comprising 20 mM of Tris-HCl, 2 mM of EGTA (ethylene glycol bis(2-aminoethyl ether)tetraacetic acid), 5 mM of magnesium acetate, 0.1% of BSA (bovine serum albumin), 0.03% of NaN3, 0.5 mM of PMSF (phenylmethylsulfonyl fluoride), 20 micrograms/ml of leupeptin, 4 micrograms/ml of E-64 (manufactured by the Peptide Institute, Japan) and 1 microgram/ml of pepstatin; pH 7.2] to make 1.4 micrograms/ml and 0.7 microgram/ml for the insect cell (Sf 9) membrane fraction wherein a human ETA receptor was expressed and for that wherein a human ETB receptor was expressed, respectively. Each 100 microliters of them were taken out and 2 microliters of 5nM [^125I]endothelin-1 was added thereto. A dimethyl sulfoxide solution (3 microliters) of the sample was added thereto and the mixture was incubated at 25°C for 60 minutes. Further, in order to measure the maximum binding (B0) and the nonspecific binding (NSB), a lot to which […] or […] of 10^-5M of endothelin-1 in dimethyl sulfoxide was added was incubated as well. An assay buffer suspended with 0.05% CHAPS (3-[(3-cholamidopropyl)di-methylammonio]-1-propanesulfonate, 1.5 ml) was added and the mixture was filtered through a GF/F glass fiber filter (trade name of Whatman, England) followed by washing with 1.5 ml of the same buffer.
(§4) The radioactivity of the filter was counted by a γ -counter and determined PMB by the same way described in Test Example 1. The value wherein PMB = 50% was calculated and expressed as an IC50.

[4] = biological target: T4, Endothelin-B Receptor (Homo sapiens, UniProt P24530); experiment: Endothelin Assay Test, [125I]endothelin-1 binding to insect cell (Sf9) membrane fraction expressing human ETB receptor; details: human ETB receptor expressed, 25°C for 60 minutes, PMB = 50%, read-out: IC 50 Endothelin-B Receptor (human)
T4 construct: expressed in transfected cells; host or cells: Sf9 insect cells (membrane fraction)
T4 sequence (P24530 27-442): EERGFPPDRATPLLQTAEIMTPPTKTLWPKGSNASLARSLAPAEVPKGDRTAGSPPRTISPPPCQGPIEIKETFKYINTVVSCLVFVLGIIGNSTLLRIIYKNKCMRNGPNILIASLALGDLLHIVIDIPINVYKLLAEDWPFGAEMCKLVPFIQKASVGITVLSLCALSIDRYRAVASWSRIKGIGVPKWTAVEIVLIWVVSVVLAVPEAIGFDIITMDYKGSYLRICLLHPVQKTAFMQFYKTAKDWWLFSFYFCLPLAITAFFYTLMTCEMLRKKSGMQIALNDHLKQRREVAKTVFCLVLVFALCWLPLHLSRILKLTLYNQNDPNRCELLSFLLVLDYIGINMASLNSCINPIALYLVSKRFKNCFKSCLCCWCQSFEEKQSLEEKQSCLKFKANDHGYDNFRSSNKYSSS
Method: as §3, §4

Row | IC50 [1] [µM] | IC50 [2] [µM] | IC50 [3] [µM] | IC50 [4] [µM] | Structure (SMILES)
1 | 12 | 39 |  |  | COc1cccc(Cn2c(=O)n(CC(=O)O)c(=O)c3cc(-c4ccccc4)sc32)c1 [Compound 99]
2 | 1.3 | 7.5 |  |  | COc1ccccc1Cn1c(=O)n(CC(=O)O)c(=O)c2c(C)c(-c3ccccc3)sc21 [Compound 102]
3 |  |  | 1.9 | 12 | COc1ccc(-c2sc3c(c2C)c(=O)n(CC(=O)O)c(=O)n3Cc2ccccc2OC)cc1 [Compound 105]
4 |  |  | 0.066 | 0.66 | CSCOc1ccc(-c2sc3c(c2C)c(=O)n(CC(=O)O)c(=O)n3Cc2ccccc2SC)cc1 [Compound 145, 2,4(1H,3H)-dioxo-5-methyl-6-(4-methylthiomethoxyphenyl)-1-(2-methylthiobenzyl)thieno[2,3-d]pyrimidine-3-acetic acid]
5 |  |  | 0.4 | 7.1 | CSc1ccccc1Cn1c(=O)n(CC(=O)O)c(=O)c2c(C)c(-c3ccc(OCC(C)=O)cc3)sc21 [Compound 148, 2,4(1H,3H)-dioxo-5-methyl-1-(2-methylthiobenzyl)-6-[4-(2-oxopropoxy)phenyl]thieno[2,3-d]pyrimidine-3-acetic acid]
6 |  |  | 2.5 | 33 | COc1ccccc1Cn1c(=O)n(CC(=O)O)c(=O)c2c(C)c(-c3ccc(OCC(N)=O)cc3)sc21 [Compound 143]
7 |  |  | 0.25 | 2.6 | CCCOc1ccc(-c2sc3c(c2C)c(=O)n(CC(=O)O)c(=O)n3Cc2ccccc2SC)cc1 [Compound 146, 2,4(1H,3H)-dioxo-5-methyl-1-(2-methylthiobenzyl)-6-(4-propoxyphenyl)thieno[2,3-d]pyrimidine-3-acetic acid]
8 |  |  | 0.71 | 6.8 | COc1ccc(-c2sc3c(c2C)c(=O)n(CC(=O)O)c(=O)n3Cc2ccccc2SC)cc1 [Compound 115, 2,4(1H,3H)-dioxo-5-methyl-6-(4-methoxyphenyl)-1-(2-methylthiobenzyl)thieno[2,3-d]pyrimidine-3-acetic acid]
9 |  |  | 2.9 | 26 | COc1ccc(-c2sc3c(c2C)c(=O)n(CC(=O)O)c(=O)n3Cc2cc(OC)ccc2OC)cc1 [Compound 125]
10 |  |  | 2.1 | 2.5 | CSc1ccccc1Cn1c(=O)n(CC(=O)O)c(=O)c2c(C)c(-c3ccc(-n4cccc4)cc3)sc21 [Compound 173, 2,4(1H,3H)-dioxo-1-(2-methylthiobenzyl)-6-[4-(1-pyrrolyl)phenyl]-5-methylthieno[2,3-d]pyrimidine-3-acetic acid]
11 |  |  | 0.24 | 15 | COc1ccccc1Cn1c(=O)n(CC(=O)O)c(=O)c2c(C)c(-c3ccc(OCSC)cc3)sc21 [Compound 140, 2,4(1H,3H)-dioxo-5-methyl-6-(4-methylthiomethoxyphenyl)-1-(2-methoxybenzyl)thieno[2,3-d]pyrimidine-3-acetic acid]
12 |  |  | 1.8 | 14 | COc1ccc(-c2sc3c(c2C)c(=O)n(CC(=O)O)c(=O)n3Cc2ccccc2C)cc1 [Compound 111]
13 |  |  | 2.6 | 16 | CSc1ccccc1Cn1c(=O)n(CC(=O)O)c(=O)c2c(C)c(-c3ccc4c(c3)OCO4)sc21 [Compound 156]
14 |  |  | 0.085 | 0.92 | COCOc1ccc(-c2sc3c(c2C)c(=O)n(CC(=O)O)c(=O)n3Cc2ccccc2SC)cc1 [Compound 144, 2,4(1H,3H)-dioxo-5-methyl-6-(4-methoxymethoxyphenyl)-1-(2-methylthiobenzyl)thieno[2,3-d]pyrimidine-3-acetic acid]
15 |  |  | 1.2 | 12 | COc1ccccc1Cn1c(=O)n(CC(=O)O)c(=O)c2c(C)c(-c3ccc(OCCO)cc3)sc21 [Compound 130]
16 |  |  | 0.3 | 2.4 | COCOc1ccc(-c2sc3c(c2C)c(=O)n(CC(=O)O)c(=O)n3Cc2ccccc2OC)cc1 [Compound 131, 2,4(1H,3H)-dioxo-5-methyl-6-(4-methoxymethoxyphenyl)-1-(2-methoxybenzyl)thieno[2,3-d]pyrimidine-3-acetic acid]
